Measurements as given in patent US6313170A, “L-threonate ferrous, as well as pharmaceutical composition and use for improving and treating human anemia thereof” (priority 1997, dated 2001).
Read-outs that look alike come from different tables or passages of the source.

Assays:
[1] = rat, in vivo, po, 72 h
Description: Its chemical formula is Fe(C4 H7 O5)2.2H2 O, molecular weight:362.
Animals: Male Wistar rats were supplied by Experimental Animal Center, Tumor Institute of Heilongjian Province with body weight of 140 g-180 g. The iron-low diet contains iron 0.9 mg/kg.
50 rats were randomly divided into 5 groups of [19] 10 rats each. On this basis of administration of iron-low diet, each group of rats was administered respectively by gavage according to the dosage below:
High dosage group: Fe, 5 mg/kg, ferrous L-threonate, 32.32 mg/kg;
Middle dosage group: Fe, 2.5 mg/kg, ferrous L-threonate, 16.16 mg/kg;
Low dosage group: Fe, 1.0 mg/kg, ferrous L-threonate, 6.46 mg/kg;
Positive drug control group (ferrous sulfate): Fe, 2.5 mg/kg, ferrous sulfate, 12.43 mg/kg;
Negative drug control group (iron-low diet): Fe, 0.9 mg/kg (measured value).
After the end of 7 days feeding normal diet period, rats were supplemented with iron-low diet prepared according to AOAC formula for another 7 days. The 1-3 groups were treatment groups and supplemented with ferrous L-threonate 32.32 mg/kg (5 mgFe/kg, high dose group), 16.16 mg/kg (2.5 mg Fe/kg, middle dose group) and 6.46 mg/kg (1.0 mg Fe/kg, low dose group), respectively. The forth, positive drug control group, was provided with ferrous sulfate 12.43 mg/kg (2.5 mg Fe/kg). The fifth was model control group and was offered with iron-low diet (0.9 mg Fe/kg). Each groups were arranged to take drug one time by I.G (gavage) method per day and in the same time were supplemented with deionized water.
The test was sustained three days. Each rat's excrement was collected, dried at temperature 80-90° C., weighed and ground into 40-60 meshes. About 0.5 to 0.6 gram sample was taken and a mixture of nitric acid and perchloric acid at a ratio of 4:1 was added therein until completion of digestion. The constant volume is 10 ml. The iron content of excrement was determined by atomic absorption method and the iron absorptive rate for each rat can be calculated by the formula listed below. [formula]

Nutritional IDA Model = system: Nutritional IDA Model
Description: 1. […] All drugs were diluted by distilled water.
(2) Nutritional Anemia Model: Male Wistar rats with body weight 43±2.5 g (Animal Center of Beijing Medical University) were randomly divided into 8 groups of 10 rats each, wherein 6 groups were established for the investigation of nutritional anemia and 2 groups were used as normal control group. The rats of these six groups were supplemented with iron-low diet (prepared according to the formula of AOAC, iron content 8.0 mg/kg) and deionized water four weeks to prepare the nutritional IDA model, which also was called hemoglobin exhausting test. Another two groups were designed as normal control groups and were provided with normal diet (obtained from Beijing Medical University) and water during the whole experimental period.
Hemoglobin of each group of rats was measured one time every 7 days. […] Other 6 groups (three for ferrous L-threonate, one for ferrous gluconate, one for mode control and one normal control group) rats were kept under controlled conditions (ambient temperature 23° C., 60% relative humidity, and 10 hours light) in animal feeding room to continue the further test.

IDA for Children = conditions: for FEP / RBC / SF / Hb: tablets 7.5 mg Fe + 30 mg vitamin C
Description: Subjects: Thirty school-age children aged from 8 to 13 years of Haerbin city of China.
Methods: Blood samples of 10 μl from ear and 5 ml from arm vein for each patient were collected for measurement.
(1) Measurement of RBC: 10 μl blood sample was added to 2 ml diluent and the mixture was shaken completely. One drop of this suspending solution taken by circle glass bar was poured into counting cell. RBC was countered through microscope by laying counting plate on the microstat.
(2) Measurement of HB: The ferric cyanide method was used to determine the HB. 10 μl ear blood sample was added to 5 ml acid diluent to obtain the completely mixed solution by shaking. HB was measured by SH hemoglobinometer manufactured by Huauang Instrument Company of Jianshu Province. Ferric cyanide was purchased from Medical Examination Institute of Shanghai.
(3) Measurement of FEP: To add 0.05 ml whole blood sample anticoagulated by heparin to 3.5 ml of acid anhydrous ethyl alcohol, the mixture was shaken for 5 min and then was centrifugalized with speed of 3000 r/min. The centrifugate of mixture was used for the measurement of fluorometric method (400 nm for exciting optical filter and 600 nm for emitting optical filter).
According to formula given below, the FEP can be calculated. [formula]
Where Fu and PCV represent fluorescence extent and hematocrit, respectively.
To centifugalized 2 ml whole blood sample, the upper solution was used for measurement of SF through the method of radio-immune competition-inhibition program.
Among these 62 IDA patients, 30 children were randomly selected as treatment group of ferrous L-threonate.
Another 30 children with IDA were selected from another prime school with the same diagnosing standards and were established as control group.
Observation time for treatment group and control group was 30 days period and during that period, there were no any intervention on children's activity and food.
(3) Dosages: Each child of treatment group was administered ferrous L-threonate tablets twice a day, one tablet each time. While normal control group was treated with placebo by the same method.

bone marrow cells = conditions: in vivo
[2] = in vivo, po
[3] = water
[4] = after treatment (30 days), twice a day

ferrous L-threonate
Absorptivity ([1]; 1 mg/kg): 59.10 ± 5.01%
Absorptivity ([1]; 2.5 mg/kg): 54.90 ± 4.08%
Absorptivity ([1]; 5 mg/kg): 42.60 ± 1.79%
hemochrome content, onset of increase (Nutritional IDA Model; end of 7 days supplementation): started to increase at the end of 7 days supplementation
hemochrome content compared with normal control groups (Nutritional IDA Model; rat, in vivo): reached nearly the normal levels of normal control groups
parameters investigated compared with ferrous gluconate (Nutritional IDA Model; same ferrous dosage): better than those of the known drug, ferrous gluconate
variations of Hb, SF and RBC compared with control group (IDA for Children; 30 days of treatment, P<0.01): significantly better compared with those of control group (P<0.01)
FEP (IDA for Children; after treatment (30 days)): 445.1 µg/L
RBC (IDA for Children; [4]): 401.5 ± 12.4 10^4 /mm^3
SF (IDA for Children; [4]): 17.01 ± 1.99 µg/L
Hb (IDA for Children; before treatment, twice a day): 104.8 ± 6.1 g/L
RBC (IDA for Children; before treatment, twice a day): 387 ± 6.67 10^4 /mm^3
SF (IDA for Children; before treatment, twice a day): 12.45 ± 1.50 µg/L
number of children with Hb > 120 g/L and ΔHb > 10 g/L (IDA for Children; n=30, tablets, 30 days): 17
number of children with no effectiveness (IDA for Children; n=30, tablets, 30 days): 6
number of children with ΔHb > 5 g/L (IDA for Children; n=30, tablets, 30 days): 7
share of children with Hb > 120 g/L and ΔHb > 10 g/L (IDA for Children; n=30, tablets, 30 days): 56.7%
share of children with no effectiveness (IDA for Children; n=30, tablets, 30 days): 20.0%
share of children with ΔHb > 5 g/L (IDA for Children; n=30, tablets, 30 days): 23.3%
FEP (IDA for Children; printed under after treatment (30 days)): 120.4 ± 11.2 µg/L
Hb (IDA for Children; printed under before treatment): 669.1 ± 72.0 g/L
effective rate of improving the case of IDA for children (IDA for Children; tablets, 30 days): 80%
variations of Hb, SF and RBC before and after treatment (IDA for Children; treatment group, P<0.01): understandingly significant difference (P<0.01)
micronucleus test result (bone marrow cells): negative
embryonic toxicity and aberration [2]: did not produce embryonic toxicity and abberation
solubility [3]: soluble in water
